Consider 22 compounds from patent US6084072A, “Purified lectin and methods of use” (The Regents of the University of Michigan, priority 1993, dated 2000).

Assay [1] concerns the target T1, amaranthin (Amaranthus caudatus, UniProt Q71QF2). Put plainly: Precipitation of amaranthin by glycoproteins and glycoconjugates, native or glycosidase treated. The format is binding. The settings on record: for Precipitate formation with amarantin: Glycosidase: β-Galactosidase; for precipitation of amaranthin, in words: untreated glycoprotein or glycoconjugate, 80 μg amaranthin. The procedure: Glycosidase digestions, and in particular exo-β-galactosidase digestions were carried out for 9 hours at 37° C. in 0.1 M sodium citrate, pH 4.3 using 0.1 unit of enzyme/μmol of terminal galactosyl group. Endo-α-N-acetylgalactosaminidase treatment of asialo-ovine submaxillary mucin was done as described in Sadler, J. E., Rearick, J. L., Paulson, J. C., and Hill, R. L. (1979). GSC Exo-α-N-acetylgalactosaminidase digestion of asialo-ovine submaxillary mucin was carried out according to the recommendations of Genzyme of Boston, Mass. Glycoproteins were analyzed for carbohydrate composition, before and after glycosidase treatment, as described.
(§1) Precipitation assays were conducted in 1.5 ml centrifuge tubes by the method of So and Goldstein. Indicated amounts of glycoprotein were added to 80 μg of amaranthin, and the total volume was adjusted to 250 μl with phosphate buffered saline. The tubes were incubated at 37° C. and then kept at 4° C. for 2 days. The precipitates were centrifuged, washed with cold Phosphate buffered saline, dissolved in 0.05 N NaOH and analyzed for protein by the method of Lowery et al. using bovine serum albumin as the standard. Hapten inhibition assays were carried out using 80 μg of amaranthin, 5 μg of asialo-ovine submaxillary mucins, and the indicated sugar concentrations. Inhibition was determined relative to the amount of precipitate formed in the control with no sugar added. All precipitation assays were conducted in duplicate to bring the tolerance within ±5% and the amount of precipitate formed average.

The target of assay [2] is T1, amaranthin. Kind of assay: Elution of amaranthin from Synsorb-T column. The format is binding. The source says: The unbound material was washed from the Synsorb-T beads with phosphate buffered saline (PBS), and the A. caudatus lectin was eluted with 0.1 N acetic acid, pH 3. The Synsorb-T beads are fine particles of diatomaceous earth, or sand material bonded to the disaccharide Galβ1,3GalNAcα-O--(CH2)8 CO. […] Thus, it was necessary to reapply the unbound material to the affinity column to obtain the remaining lectin.
Elution of amaranthin from the affinity columns with non-specific agents was employed due to the expense and limited availability of Galβ1,3GalNAc, the best binding ligand. GalNAc (0.5 M) was effective in displacing amaranthin from the Synsorb-T matrix. However, when amaranthin (0.9 mg) was applied to a small Synsorb-T column (0.58 ml), it was observed that 100 μM Galβ1,3GalNAcα-O-benzyl eluted the lectin.

Assay [3] addresses T1, amaranthin. Kind of assay: Hapten inhibition of amaranthin/asialo-ovine submaxillary mucin precipitation. The format is binding. The settings on record: for Relative Inhibition potency ACA: N-Acetylgalactosamine = 1. The procedure: as §1
Assay [4] deals with T2, PNA (Arachis hypogaea, UniProt P02872).
T2 construct: purchased E.Y. Laboratories, San Mateo, Calif; (donated by Dr. A. Chu)
T2 sequence (P02872 24-273): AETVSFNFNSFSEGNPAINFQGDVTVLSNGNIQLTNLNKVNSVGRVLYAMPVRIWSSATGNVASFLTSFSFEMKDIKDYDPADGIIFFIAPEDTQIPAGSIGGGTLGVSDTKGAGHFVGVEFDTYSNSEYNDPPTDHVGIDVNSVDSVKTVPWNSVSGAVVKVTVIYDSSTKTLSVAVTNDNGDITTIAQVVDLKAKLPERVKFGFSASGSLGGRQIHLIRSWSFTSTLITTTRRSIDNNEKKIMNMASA
Kind of assay: Hapten inhibition of PNA/asialoglycophorin precipitation. Conditions: Galactose = 1; 40 μg PNA, 6 μg asialoglycophorin. Type of assay: binding. As to the method: (§2) Precipitation reactions with PNA were carried out similarly, except that 40 μg of PNA was used. Hapten inhibition studies with PNA used 40 μg of PNA, 6 μg of asialoglycophorin, and the indicated sugar concentrations.

The target in assay [5] is T2, PNA. Put plainly: Precipitation reactions with PNA. Type of assay: binding. As to the method:
as §2

In assay [6] the target is T2, PNA. Conditions: reported by Pereira; cited from earlier work.
Assay [7] addresses T3, Artocarpus intergrifolia lectin (Artocarpus integer, UniProt P18670).
T3 construct: host or cells: Artocarpus integrifolia seeds
The settings on record: cited from earlier work.

Assay [8] addresses T2, PNA. Conditions: reported by Lotan, Pereira; cited from earlier work.

Entries after “also recorded” stand apart in the source; their conditions may differ. Like-named read-outs stand apart in the source and are kept apart here.

As usually defined, the IC50 is the concentration at which inhibition is half-maximal. A lower IC50 goes with greater potency in that assay.

T1 sequence (Q71QF2 entry or part of it): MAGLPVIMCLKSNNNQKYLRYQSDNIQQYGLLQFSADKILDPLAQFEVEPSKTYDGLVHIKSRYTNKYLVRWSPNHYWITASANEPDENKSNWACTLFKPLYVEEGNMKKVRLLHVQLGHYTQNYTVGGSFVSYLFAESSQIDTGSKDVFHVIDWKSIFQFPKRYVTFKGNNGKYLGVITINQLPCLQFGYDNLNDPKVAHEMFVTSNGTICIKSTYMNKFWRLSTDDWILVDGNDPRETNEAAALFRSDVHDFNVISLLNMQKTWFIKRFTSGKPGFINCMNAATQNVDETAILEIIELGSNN
T3 sequence (P18670 whole entry): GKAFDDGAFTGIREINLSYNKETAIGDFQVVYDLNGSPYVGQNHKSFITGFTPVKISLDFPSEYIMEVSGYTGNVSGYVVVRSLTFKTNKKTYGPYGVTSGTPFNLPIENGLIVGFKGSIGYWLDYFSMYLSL
T3 sequence (P18673 whole entry partner): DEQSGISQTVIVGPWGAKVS

For “Asialo-glycopeptide Mt: NH2-terminal 39 amino acids of asialoglycophorin with 12 Galβ1,3GalNAcα-O residues and one N-linked oligosaccharide (LSTTEVAMHTSTSSSVTKSYISSQTNDTHKRDTYAATPR; desialylated glycans; UniProt P02724 20-58, looked up, fragment)”, in the assay with amaranthin [1], the “Precipitate formation with amarantin” value was “No” and the “precipitation of amaranthin, in words” value is reported as “reacted strongly; also recorded: reacts very well with amaranthin”. Also, the “Precipitate formation with amarantin” value in the assay with amaranthin [1] (listed as asialo-glycopeptide Mt) is “reactivity was eliminated; also recorded: no longer precipitates”.

With laminin, the “precipitation of amaranthin, in words” value on amaranthin [1] is “did not precipitate amaranthin”.

In the case of `CC(=O)N[C@H]1[C@@H](OCc2ccccc2)O[C@H](CO)[C@H](O)[C@@H]1O[C@@H]1O[C@H](CO)[C@H](O)[C@H](O)[C@H]1O` [Galβ1,3GalNAcα-O-benzyl], the “concentration that eluted the lectin” value at amaranthin [2] (0.9 mg amaranthin on 0.58 ml Synsorb-T column) came to 100 µM. For the same compound, at amaranthin [3], the IC50 is 1.6 µM and the “Relative Inhibition potency ACA” value is given as 494. Moreover, at PNA [4], the “Relative Inhibition potency PNA” value was 50.

For the compound NeuAcα2,3Galβ1,3GalNAcα-OBSA, the “precipitation of amaranthin, in words” value at amaranthin [1] was “good precipitating agents”. The “precipitation of PNA, in words” value on PNA [5] is “not precipitated”.

As to `CC(=O)N[C@H]1C(O)O[C@H](CO)[C@H](O)[C@@H]1O` (stereo partly drawn) [N-Acetylgalactosamine], on amaranthin [2], the “concentration effective in displacing amaranthin from the Synsorb-T matrix” value was 0.5 M. This compound showed a half-inhibitory concentration (IC50) at amaranthin [3] of 790 µM. Also, at amaranthin [3] (inhibitor of amaranthin), the “times less potent than Galβ1,3GalNAcα-O--R (α-linked T-antigen disaccharides)” value came out at 350. For the same compound, on amaranthin [3] (listed as GalNAc), the “inhibition of amaranthin/AOSM precipitation, in words” value is on record as “only monosaccharide found to inhibit; also recorded: inhibited by GalNAc”. Besides, at PNA [4], the “Relative Inhibition potency PNA” value is given as less than 0.4.

For Galβ1,3[NeuAcα2,6]GalNAcα-O-BSA, the “precipitation of amaranthin, in words” value on amaranthin [1] is “good precipitating agents; also recorded: can precipitate amaranthin”.

Consider `CC(=O)N[C@H]1[C@H](O[C@H]2[C@@H](O)[C@@H](CO)O[C@@H](O[C@H]3[C@@H](O)[C@@H](CO)O[C@H](OCc4ccccc4)[C@@H]3NC(C)=O)[C@@H]2O)O[C@H](CO)[C@@H](O)[C@@H]1O` [GlcNAcβ1,3Galβ1,3GalNAcα-O-benzyl], for which, on amaranthin [3], half-maximal inhibition (IC50) was put at 25 µM and the “Relative Inhibition potency ACA” value is given as 32. For the same compound, the “decrease of potency by a factor, against Galβ1,3GalNAcα-O-benzyl” value at amaranthin [3] (C'-3 substitution with GlcNAc) was 10. Also, the “fold lower reactivity compared with NeuAcα2,3Galβ1,3GalNAcα-O” value on amaranthin [3] (amaranthin) is given as 10. For the same compound, on PNA [4], the “Relative Inhibition potency PNA” value was less than 10.

`CO[C@H]1O[C@H](CO)[C@H](O)[C@H](O)[C@H]1O` [Methyl α-galactoside]: the “Relative Inhibition potency ACA” value at amaranthin [3] is listed as less than 0.003. Besides, the “Relative Inhibition potency PNA” value on PNA [4] is recorded as 2.2.

On to `CO[C@H]1[C@@H](O)[C@@H](CO)O[C@@H](O[C@H]2[C@@H](O)[C@@H](CO)O[C@H](OCc3ccccc3)[C@@H]2NC(C)=O)[C@@H]1O` [3-O-Methyl Galβ1,3GalNAcα-O-benzyl], for which, on amaranthin [3], it took 2 µM to reach half-maximal inhibition (IC50) and the “Relative Inhibition potency ACA” value stood at 395. In addition, the “Relative Inhibition potency PNA” value at PNA [4] is given as less than 10.

Consider Galβ1,3GalNAcβ-O-BSA, for which the “precipitation of PNA, in words” value on PNA [5] is given as “react equally well”.

Take “fetuin: fetuin, three O-linked oligosaccharide chains per molecule”: in the assay with amaranthin [1], the “precipitation of amaranthin, in words” value is reported as “did not precipitate amaranthin; also recorded: does not precipitate fetuin”.

Regarding `COC(=O)CCCCCCCCO[C@H]1O[C@H](CO)[C@H](O)[C@H](O[C@@H]2O[C@H](CO)[C@H](O)[C@H](O)[C@H]2O)[C@H]1NC(C)=O` [Galβ1,3GalNAcαO(CH2)8 -CH-CH3], on amaranthin [3], it took 1.8 µM to reach half-maximal inhibition (IC50) and the “Relative Inhibition potency ACA” value is listed as 439. The “Relative Inhibition potency PNA” value on PNA [4] amounted to 47.

As to bovine submaxillary mucin, the “precipitation of amaranthin, in words” value at amaranthin [1] is listed as “did not form precipitates”.

As to “asialo-α1 -acidglycoprotein: desialylated α1-acid glycoprotein”, the “precipitation of amaranthin, in words” value with amaranthin [1] was “did not precipitate amaranthin”. In addition, the “precipitation of / reaction with PNA, in words” value with PNA [6] is “precipitated by”.

With `CO[C@@H]1O[C@H](CO)[C@H](O)[C@H](O[C@@H]2O[C@H](CO)[C@H](O)[C@H](O[C@@H]3O[C@H](CO)[C@H](O)[C@H](O)[C@H]3O)[C@H]2NC(C)=O)[C@H]1O` [Galβ1,3GalNAcβ1,3Galβ-O--CH3], at amaranthin [3], the “inhibition of amaranthin/AOSM precipitation, in words” value is recorded as “poor inhibitor” and the “Relative Inhibition potency ACA” value is listed as less than 0.08. Moreover, at PNA [4], the “Relative Inhibition potency PNA” value was 38.

Turning to `CC(=O)N[C@H]1C(O)O[C@H](CO)[C@H](O)[C@@H]1O[C@@H]1O[C@H](CO)[C@H](O)[C@H](O)[C@H]1O` (stereo partly drawn) [Galβ1,3GalNAc], in assay [7], the “times more potent than GalNAc” value is 37 and the “times more potent than galactose” value is reported as 100. Moreover, at amaranthin [3], the IC50 is 3.4 µM and the “Relative Inhibition potency ACA” value was found to be 232.

On to `CC(=O)N[C@H]1CO[C@H](CO)[C@H](O)[C@@H]1O[C@@H]1O[C@H](CO)[C@H](O)[C@H](O)[C@H]1O` [Galβ1,3(2-acetamido-2-deoxy-1,5-anhydrogalactitol)], for which, at amaranthin [3], the half-inhibitory concentration (IC50) stood at 5.8 µM and the “Relative Inhibition potency ACA” value amounted to 136. The “times less potent than Galβ1,3GalNAc” value on amaranthin [3] (inhibitor of amaranthin) is given as 1.7. The “Relative Inhibition potency PNA” value on PNA [4] came to 14.

With `CO[C@H]1O[C@H](CO)[C@H](O)[C@H](O[C@@H]2O[C@H](CO)[C@H](O)[C@H](O)[C@H]2O)[C@H]1NC(C)=O` [Galβ1,3GalNAcα-O-CH3], on amaranthin [3], half-maximal inhibition (IC50) was put at 3.1 µM. The “Relative Inhibition potency PNA” value on PNA [4] worked out at 47.

As for Galβ,3GalNAcα-O-BSA, the “precipitation of amaranthin, in words” value at amaranthin [1] is “good precipitating agents”; at amaranthin [1] (listed as Galβ1,3GalNAcα-O-BSA) it was “can be precipitated by”. Also, at PNA [5], the “precipitation of PNA, in words” value is on record as “react equally well”.

Consider `CC(=O)N[C@H]1[C@@H](OCc2ccccc2)O[C@H](CO)[C@H](O)[C@@H]1O[C@@H]1O[C@H](C)[C@H](O)[C@H](O)[C@H]1O` [D-Fubcβ1,3GalNAcα-O-benzyl], for which, at amaranthin [3], inhibition was half-maximal at 1.9 µM (IC50); the “inhibition of amaranthin/AOSM precipitation, in words” value is given as “very good inhibitor”; the “Relative Inhibition potency ACA” value is recorded as 416. For the same compound, the “Relative Inhibition potency PNA” value on PNA [4] was 11.

On to `CC(=O)N[C@H]1C(O)O[C@H](CO)[C@@H](O[C@@H]2O[C@H](CO)[C@H](O)[C@H](O)[C@H]2O)[C@@H]1O` (stereo partly drawn) [Galβ1,4GlcNAc], for which, on amaranthin [3], the “Relative Inhibition potency ACA” value was less than 0.008. Moreover, on PNA [8], the “inhibition of PNA, in words” value was “rather good inhibitors”.

As to Asialofetuin: desialylated fetuin, the “precipitation of amaranthin, in words” value with amaranthin [1] is reported as “precipitated a small amount of amaranthin; also recorded: weak precipitation reaction”.
